Test results from ChEMBL document CHEMBL1131960, “Simple mono-derivatisation of the aryl moiety of D4A and DDA-based phosphoramidate prodrugs significantly enhances their anti-HIV potency in cell culture” (Bioorg Med Chem Lett, 1999).

Experiments:
esterase = experiment: Compound was evaluated for esterase half-life (t 1/2) period using Pig Liver Esterase (PLE) assay; type: ADME, Sus scrofa
[1] = Compound was evaluated for its lipophilicity by 1-octanol/water (phosphate buffer, pH 7.0) and the partition coefficient (log P) was reported.; type: physicochemical
CCRF-CEM [2] = experiment: Compound was evaluated for its concentration (potency) to inhibit the growth of CEM cells.; type: functional; conditions: Homo sapiens
CCRF-CEM [3] = experiment: Compound was evaluated for its effective concentration (potency) to inhibit the growth of HIV-1 in CEM cell culture.; type: functional, cell-based; conditions: Homo sapiens
CCRF-CEM [4] = experiment: Compound was evaluated for its effective concentration (potency) to inhibit the growth of HIV-2 in CEM cell culture.; type: functional, cell-based; conditions: Homo sapiens
[5] = Compound was evaluated for its ability to inhibit the growth of HIV-1 in CEM cell culture (CC50/EC50); type: functional, CCRF-CEM
[6] = Compound was evaluated for its ability to inhibit the growth of HIV-2 in CEM cell culture (CC50/EC50); type: functional, CCRF-CEM

Row | half-life (esterase) | logD [1] | EC50 (CCRF-CEM [3]) | EC50 (CCRF-CEM [4]) | SMILES | CC50 (CCRF-CEM [2]) | SI [5] | SI [6]
1 | 301 h | 0.94 | 0.0055 µM |  | COC(=O)C(C)NP(=O)(OCC1C=CC(n2cnc3c(N)ncnc32)O1)Oc1ccccc1 (stereo unspecified) | 3.8 µM | 691 | 211
2 | 75 h | 1.71 | 0.0023 µM | 0.0033 µM | COC(=O)C(C)NP(=O)(OCC1CCC(n2cnc3c(N)ncnc32)O1)Oc1cccc(Br)c1 (stereo unspecified) | 0.56 µM | 243 | 170
3 | 62 h | 2.11 | 0.0023 µM | 0.0017 µM | COC(=O)C(C)NP(=O)(OCC1C=CC(n2cnc3c(N)ncnc32)O1)Oc1ccc(I)cc1 (stereo unspecified) | 0.86 µM | 374 | 506
4 | 100 h | 1.72 | 0.0032 µM | 0.0027 µM | COC(=O)C(C)NP(=O)(OCC1C=CC(n2cnc3c(N)ncnc32)O1)Oc1ccc(Br)cc1 (stereo unspecified) | 0.84 µM | 263 | 311

The remaining lines, values behind:

Row | SMILES | half-life (esterase) | logD [1] | EC50 (CCRF-CEM [3]) | EC50 (CCRF-CEM [4]) | CC50 (CCRF-CEM [2]) | SI [5] | SI [6]
5 | COC(=O)C(C)NP(=O)(OCC1CCC(n2cnc3c(N)ncnc32)O1)Oc1cccc(I)c1 (stereo unspecified) | 62 h | 2.07 | 0.0022 µM | 0.0027 µM | 0.43 µM | 195 | 159
6 | Nc1ncnc2c1ncn2[C@H]1C=C[C@@H](CO)O1 |  | -0.36 |  |  | 91 µM | 4.6 | 4.6
7 | Nc1ncnc2c1ncn2[C@H]1CC[C@@H](CO)O1 |  | -0.22 | 4 µM | 8 µM | > 100 µM | >25 | >13
8 | COC(=O)C(C)NP(=O)(OCC1CCC(n2cnc3c(N)ncnc32)O1)Oc1ccccc1 (stereo unspecified) | 301 h | 0.89 | 0.016 µM | 0.035 µM | 2.57 µM | 161 | 73
